Test results taken from EP0350948B1, “Porphyrin derivatives” (TOYOHAKKA KOGYO KABUSHIKI KAISHA, priority 1988, dated 1990).

Key:
[1] = test system: nitrosoamine-induced pancreatic cancer; assay: laser irradiation to the extirpated organ (excited fluorescent spectrum, N2-PLS measurement), tumor to tissue ratio; format: in vivo, Golden hamsters; conditions: i.v. 25 mg/kg bodyweight, organs extirpated at 24 hours after administration
Procedure: Golden hamsters (males, 5 per group, bodyweight approximately 150 g) were implanted subcutaneously tumor cells of the nitrosoamine-induced pancreatic cancer. After 14 to 21 days following implantation, animals were intravenously (i.v.) administered the test substance EG-Ga-DP-diGly (10 mg/ml) which had been diluted with phosphate buffer at 25 mg/kg bodyweight. At 24 hours after administration, the organs including the tumor were extirpated, irradiated with N2-pulsed laser (N2, 337 nm, 2 ns, 400 - 1000 nm), and measured of excited fluorescent spectrum. The wavelengths of 600 - 900 nm were studied using the peak wavelength of NADH at 470 nm as a reference. (N2-PLS measurement). […] (Tumor to tissue ratio).
Excited fluorescent spectra of the organs extirpated at 24 hours after administration were measured, and the peak wavelength at 600 - 900 nm was calculated by setting the peak wavelength at 470 nm as the reference 1. As fluorescence in Mn, Fe and Cu complexes is not sufficiently intense as to enable N2-PLS measurement, the extraction method was applied to these compounds. At 24 hours following administration, the organs were extracted with an organic solvent (such as chloroform-methanol) via acetone powder, and the obtained extract was measured of UV or HPLC to calculate the tumor to tissue ratio.

[2] = test system: nitrosoamine-induced pancreatic cancer; assay: in vivo irradiation therapy using Yag laser; set-up: species or system hamsters; conditions: i.v. 12.5 mg/kg bodyweight, Yag laser 1064 nm, 5 w, 10 sec x 4 at 24 hours after administration, autopsy 24 hours following irradiation
Procedure: Tumor bearing hamsters of Experiment 1 were i.v. administered the test materials C6-Ga-DP-diAsp (10) and C10 -Ga-DP-diAsp (16) (10 mg/ml) at 12.5 mg/kg bodyweight. At 24 hours after administration, the hair above the tumor site was shaved and irradiation with Yag laser commenced (1064 nm, 5 w, 10 sec x 4). At 24 hours following irradiation, the animals were exsanguinated and autopsied for observation.

[3] = test system: nitrosoamine-induced pancreatic cancer; assay: in vivo hemorrhagic necrosis effect; set-up: species or system hamsters; key to Hemorrhagic necrosis effect: four scales of G4, G3, G2 and G1; four scales of G4, G3, G2 and G1; four scales of G4, G3, G2 and G1; four scales of G4, G3, G2 and G1; conditions: for photograph of a cancer mass (Fig. 2): 24 hours after administration, Cn-Ga-DP-diAsp, n = even numbers; for Hemorrhagic necrosis effect: intensity of hemorrhagic necrosis at 24 hours following i.v. administration, and pathological study
Procedure: Cancer bearing hamsters of Experiment 1 were i.v. administered the test substance C6-Ga-DP-diAsp (10) (10 mg/ml) which had been diluted with phosphate buffer at 25 mg/kg bodyweight and 12.5 mg/kg bodyweight respectively. The animals were exsanguinated and autopsied at 24 hours after administration, and observed.
The evaluation was based on the four scales of G4, G3, G2 and G1.

[4] = test system: Leukemia cells of a mouse (P388); assay: in vitro photosensitivity test (cell growth inhibition ratio); format: cell-based; conditions: irradiated at 10,000 lux for 1 hour, incubated for 48 hours, versus group shielded from light
Procedure: Leukemia cells of a mouse (P388) were placed in wells (a plate with 24 wells) at 5 x 10^4/well, and incubated for 2 hours. The test materials C8-Ga-DP-diAsp (12), C10-Mn-DP-diAsp (37) and photofrin II each at concentrations of 1.56, 3.13, 6.25, 12.5, 25, and 50 ng/ml (common ratio : 2) were prepared. The specified amounts of these test solutions were added to the above culture, irradiated at 10,000 lux for 1 hour, incubated for 48 hours, and the cells per one well were counted. A group shielded from light using an aluminium foil during irradiation was provided as control. The index of photosensitivity was obtained by dividing the cell counts of the respective groups with the cell count of an untreated group provided separately (cell growth inhibition ratio (%)).
However, this was attributed to the toxicity of the test material per se rather than to irradiation.

[5] = test system: nitrosoamine-induced pancreatic cancer; assay: in vivo cell growth inhibition effect (tumor size by slide calipers); set-up: species or system hamsters; conditions: i.v. 25 mg/kg bodyweight
Procedure: Tumor bearing hamsters of Experiment 1 were i.v. administered the test substance C10-Mn-DP-diAsp (37) (10 mg/ml) diluted by phosphate buffer at 25 mg/kg bodyweight. The tumor size was measured supracutaneously using slide calipers on an appropriate day following administration.

[6] = test system: nitrosoamine-induced pancreatic cancer; assay: pathology of tumor and organs (hematoxylin-eosin sections); format: in vivo, hamsters; conditions: treated as in Experiment 2, formalin fixed
Procedure: Tumor bearing hamsters of Experiment 1 were treated similarly as in Experiment 2 except that they were administered C12-Mn-DP-diAsp (48) instead of C6-Ga-DP-diAsp (10). Organs including the tumor (the treated group and the control group) were fixed with formalin, embedded in paraffin, cut into sections, double stained with hematoxylin-eosin, and observed pathologically.
Figs. 4 and 5 show photographs of the tumor cell necrosis of the treated group. There were many cell necrosis images and necrotic layers which were not present in the non-cancerous organs and the control group.

[7] = luminescence properties of porphyrin derivatives (Table 1); format: physicochemical
From the text: There are two stages of destruction; Mechanism I under which the pigments are excited by light to assume the triple state which directly destroys the cancer cells, and Mechanism II under which the pigments in the triple state further excite oxygen to form the singlet state oxygen (activated oxygen) leading to cell necrosis. In the case of porphyrin derivatives, the Mechanism II is considered prevalent. By measuring the triple state life time (the fluorescence and phosphorescence life time) which indicates porphyrin's triple state, the length of phosphorescence life time is compared to reveal the intensity of photo-sensitivity. […] In other words, phosphorescence life time of metalloporphyrins coordinated with such metals as Zn and Ga is long while that of those coordinated with Mn, Fe, or Cu is very short.

[8] = i.v. 25 mg/kg and 12.5 mg/kg bodyweight, autopsy at 24 hours after administration

CCCCCCOC(C)C1=C(C)C2=Cc3c(C(C)OCCCCCC)c(C)c4[n]3[Ga][n]3c(c(C)c(CCC(=O)NC(CC(=O)O)C(=O)O)c3=CC3=NC(=C4)C(C)=C3CCC(=O)NC(CC(=O)O)C(=O)O)=CC1=N2 (stereo not drawn) [(10) C6-Ga-DP-diAsp, 2,4-bis(1-hexyloxyethyl)-Ga-deuteroporphynyl diaspartic acid]
tumor/tissue cancer/ kidney [1]: 6.86 | tumor/tissue cancer/ liver [1]: 5.33 | tumor/tissue cancer/ lung [1]: 5.33 | tumor/tissue cancer/ serum [1]: 0.98 | state of the cancer mass after Yag laser irradiation [2]: necrotic | photograph of a cancer mass (Fig. 2) [3]: hemorrhagic necrosis | changes of the organs such as the liver, lungs, kidneys excluding the tumor [3, 8]: showed no changes | effect on the cancer mass [3, 8]: developed hemorrhagic necrosis | Hemorrhagic necrosis effect [3]: G4

CCCCCCCCOC(C)C1=C(C)C2=Cc3c(C(C)OCCCCCCCC)c(C)c4[n]3[Ga][n]3c(c(C)c(CCC(=O)NC(CC(=O)O)C(=O)O)c3=CC3=NC(=C4)C(C)=C3CCC(=O)NC(CC(=O)O)C(=O)O)=CC1=N2 (stereo not drawn) [(12) C8-Ga-DP-diAsp, 2,4-bis(1-octyloxyethyl)-Ga-deuteroporphynyl diaspartic acid]
tumor/tissue cancer/ kidney [1]: 2.12 | tumor/tissue cancer/ liver [1]: 1.47 | tumor/tissue cancer/ lung [1]: 2.20 | tumor/tissue cancer/ serum [1]: 0.29 | concentration at which photosensitivity is manifested [4]: ≥ 1.0 ng/mL | photograph of a cancer mass (Fig. 2) [3]: hemorrhagic necrosis | Hemorrhagic necrosis effect [3]: G3

CCCCCCCCCCOC(C)C1=C(C)c2cc3[nH]c(cc4nc(cc5[nH]c(cc1n2)c(C)c5C(C)OCCCCCCCCCC)C(C)=C4CCC(=O)NC(CC(=O)O)C(=O)O)c(CCC(=O)NC(CC(=O)O)C(=O)O)c3C.[Ga] (stereo not drawn) [(16) C10-Ga-DP-diAsp, 2,4-bis(1-decyloxyethyl)-Ga-deuteroporphynyl diaspartic acid]
tumor/tissue cancer/ kidney [1]: 16.44 | tumor/tissue cancer/ liver [1]: 11.54 | tumor/tissue cancer/ lung [1]: 23.08 | tumor/tissue cancer/ serum [1]: 2.78 | state of the cancer mass after Yag laser irradiation [2]: necrotic | photograph of a cancer mass (Fig. 2) [3]: hemorrhagic necrosis | Hemorrhagic necrosis effect [3]: G2

CC(C)=CCCC(C)CCOC(C)C1=C(C)C2=Cc3c(C(C)OCCC(C)CCC=C(C)C)c(C)c4[n]3[Ga][n]3c(c(C)c(CCC(=O)NC(CC(=O)O)C(=O)O)c3=CC3=NC(=C4)C(C)=C3CCC(=O)NC(CC(=O)O)C(=O)O)=CC1=N2 (stereo not drawn) [(18) C10(Citro)-Ga-DP-diAsp, 2,4-bis(1-citronellyloxyethyl)-Ga-deuteroporphynyl diaspartic acid]
tumor/tissue cancer/ kidney [1]: 15.66 | tumor/tissue cancer/ liver [1]: 11.37 | tumor/tissue cancer/ lung [1]: 12.39 | tumor/tissue cancer/ serum [1]: 2.82 | Hemorrhagic necrosis effect [3]: G2

CC1=C(CCC(=O)NC(CC(=O)O)C(=O)O)C2=NC1=Cc1c(C)c(C(C)OCCC(C)CCCC(C)C)c3[n]1[Ga][n]1c(c(C)c(CCC(=O)NC(CC(=O)O)C(=O)O)c1=C2)=CC1=NC(=C3)C(C)=C1C(C)OCCC(C)CCCC(C)C (stereo not drawn) [(19) C10(H2Citro)-Ga-DP-diAsp, 2,4-bis(1-dihydrocitronellyloxyethyl)-Ga-deuteroporphynyl diaspartic acid]
tumor/tissue cancer/ kidney [1]: 11.49 | tumor/tissue cancer/ liver [1]: 9.09 | tumor/tissue cancer/ lung [1]: 11.11 | tumor/tissue cancer/ serum [1]: 3.50 | Hemorrhagic necrosis effect [3]: G2

CCCCCCCCCCCCOC(C)C1=C(C)c2cc3[nH]c(cc4nc(cc5[nH]c(cc1n2)c(C)c5C(C)OCCCCCCCCCCCC)C(C)=C4CCC(=O)NC(CC(=O)O)C(=O)O)c(CCC(=O)NC(CC(=O)O)C(=O)O)c3C.[Ga] (stereo not drawn) [(22) C12-Ga-DP-diAsp, 2,4-bis (1-dodecyloxyethyl)-Ga-deuteroporphynyl diaspartic acid]
tumor/tissue cancer/ kidney [1]: 8.54 | tumor/tissue cancer/ liver [1]: 4.38 | tumor/tissue cancer/ lung [1]: 7.00 | tumor/tissue cancer/ serum [1]: 1.35 | photograph of a cancer mass (Fig. 2) [3]: hemorrhagic necrosis | Hemorrhagic necrosis effect [3]: G2

CCCCCCCCCCOC(C)C1=C(C)c2cc3[nH]c(cc4nc(cc5[nH]c(cc1n2)c(C)c5C(C)OCCCCCCCCCC)C(C)=C4CCC(=O)NC(CC(=O)O)C(=O)O)c(CCC(=O)NC(CC(=O)O)C(=O)O)c3C.[Mn] (stereo not drawn) [(37) C10-Mn-DP-diAsp, 2,4-bis(1-decyloxyethyl)-Mn-deuteroporphynyl diaspartic acid]
tumor growth compared to the control group (Fig. 6) [5]: notable tumor growth inhibitory effect | photosensitivity [4]: no photosensitivity | Hemorrhagic necrosis effect [3]: G3

CCCCCCCCCCCCOC(C)C1=C(C)C2=Cc3c(C(C)OCCCCCCCCCCCC)c(C)c4[n]3[Mn][n]3c(c(C)c(CCC(=O)NC(CC(=O)O)C(=O)O)c3=CC3=NC(=C4)C(C)=C3CCC(=O)NC(CC(=O)O)C(=O)O)=CC1=N2 (stereo not drawn) [(48) C12-Mn-DP-diAsp, 2,4-bis(1-dodecyloxyethyl)-Mn-deuteroporphynyl diaspartic acid]
tumor growth compared to the control group (Fig. 6) [5]: notable tumor growth inhibitory effect | Hemorrhagic necrosis effect [3]: G4 | pathological observation of the tumor (Fig. 4) [6]: necrotic tumor cells

C=CC1=C(C)c2cc3[n-]c(cc4nc(cc5[n-]c(cc1n2)c(C)c5CCC(=O)OC)C(CCC(=O)OC)=C4C)c(C)c3C=C.[Co+2] [Co-PP-Me]
Absorbance [7]: 570 nm

C=CC1=C(C)c2cc3[n-]c(cc4nc(cc5[n-]c(cc1n2)c(C)c5CCC(=O)OC)C(CCC(=O)OC)=C4C)c(C)c3C=C.[Cu+2] [Cu-PP-Me]
Absorbance [7]: 572 nm | Phosphorescence [7]: 705 nm | Phosphorescence life time ([7]; Filter paper): 20 µs | Phosphorescence life time ([7]; Solution): 100 µs

C=CC1=C(C)c2cc3[n-]c(cc4nc(cc5[n-]c(cc1n2)c(C)c5CCC(=O)OC)C(CCC(=O)OC)=C4C)c(C)c3C=C.[Mg+2] [Mg-PP-Me]
Absorbance [7]: 590 nm | Fluorescence [7]: 600 nm

C=Cc1c(C)c2cc3[nH]c(cc4nc(cc5nc(cc1[nH]2)C(C)=C5CCC(=O)OC)C(CCC(=O)OC)=C4C)c(C)c3C=C [PP-Me]
Absorbance [7]: 633 nm | Fluorescence [7]: 635 nm | Phosphorescence life time ([7]; Filter paper): 1.8 ms

Ga-protoporphyrin dimethyl ester [Ga-PP-Me]
Absorbance [7]: 570 nm | Fluorescence [7]: 575 nm | Phosphorescence [7]: 715 nm | Phosphorescence life time ([7]; Filter paper): 50 ms | Phosphorescence life time ([7]; Solution): 200 ms
